Measurements: paper PMC3019604 (ACS medicinal chemistry letters, 2010)

Tested on: BJ, HEK293, HEP G2, and Raji cell lines
Experiment: Cytotoxicity
Format: cell-based, human
Details: four mammalian cell lines (BJ, HEK293, HEP G2, Raji)

In the case of `Cc1cc(NC(=O)Nc2cccc(OC(F)(F)F)c2)c2ccccc2n1` [4{13, 34}], the “mammalian cytotoxicity (in words)” value is reported as “weak”.
